Entries after “also recorded” stand apart in the source; their conditions may differ. Where two headings read alike, the source gives them in different places.
Experiments:
[1] = test system: T cells; assay: Toxicity towards the T cells in the expansion assay; assay type: cell-based, human
[2] = test system: K562 cells; assay: K562 proliferation; assay type: cell-based, human
[3] = test system: Vγ9Vδ2 T cells; assay: Expansion of Vγ9Vδ2 T cells from peripheral blood; assay type: cell-based, human; conditions: for Stimulation of Vγ9Vδ2 T cell proliferation: 0.1 µM, CD3+/γδ TCR+ population; for Fold difference from salt: prodrug versus unprotected salt
[4] = molecular target: T1, full intracellular domain of BTN3A1 (Homo sapiens, UniProt O00481); assay: Isothermal titration calorimetry; assay type: binding; conditions: for Binding to BTN3A1: purified BTN3A1, direct titration
[5] = HPLC and HPLC-MS analysis in aqueous acetonitrile; assay type: physicochemical
[6] = test system: K562 cells; assay: Vγ9Vδ2 T cell mediated lysis of K562 cells; conditions: for Fold difference from salt, lysis: 2 hour treatment/4 hour co-culture
[7] = molecular target: T1, full intracellular domain of BTN3A1; conditions: known Kd, ref not given; cited from earlier work
[8] = test system: K562 cells; conditions: statement of the discussion, not tested here; ref not given; cited from earlier work
[9] = test system: Vγ9Vδ2 T cells; conditions: expansion from peripheral blood; ref [10]; cited from earlier work
[10] = presence of 10-fold higher compound 8
[11] = presence of 100-fold molar excess of compound 8

T1 sequence (O00481 272-513 limits assumed): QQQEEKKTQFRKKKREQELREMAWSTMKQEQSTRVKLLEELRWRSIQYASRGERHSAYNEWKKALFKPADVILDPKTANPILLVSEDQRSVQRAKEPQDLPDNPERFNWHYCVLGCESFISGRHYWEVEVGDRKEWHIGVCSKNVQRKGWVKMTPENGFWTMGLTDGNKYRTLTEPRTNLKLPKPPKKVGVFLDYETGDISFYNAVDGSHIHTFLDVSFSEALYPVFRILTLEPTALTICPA

COP(=O)(CC/C=C(\C)CO)CP(=O)(OC)OC (centres unmarked) [Compound 9, Dimethyl (E)-(((5-hydroxy-4-methylpent-3-en-1-yl)(methoxy)phosphoryl)methyl)phosphonate]
IC50 ([1]; toxicity in T cell expansion assay): > 100 µM | IC50 ([2]; read-out: IC50, direct K562 toxicity, 72 hour treatment): > 100 µM | Agonist / biological activity [3]: nor is biologically active | EC50 ([3]; PBMC exposed 72 hours, grown 11 days, flow cytometry): > 100 µM | Binding to BTN3A1 [4]: neither binds to the protein

C/C(=C\CCP(=O)([O-])CP(=O)([O-])[O-])CO.[Na+].[Na+].[Na+] [Compound 10, Sodium (E)-(((5-hydroxy-4-methylpent-3-en-1-yl)oxidophosphoryl)methyl)phosphonate]
IC50 ([1]; Homo sapiens, T-cell): > 100 µM | EC50 ([3]; Homo sapiens, T-cell): 26 µM | Binding to BTN3A1 [4]: intermediate affinity

C/C(=C\CCP(=O)(CP(=O)(OCOC(=O)C(C)(C)C)OCOC(=O)C(C)(C)C)OCOC(=O)C(C)(C)C)CO (centres unmarked) [Compound 4, (E)-(((((5-Hydroxy-4-methylpent-3-en-1-yl)((pivaloyloxy)methoxy)phosphoryl)methyl)phosphoryl)bis(oxy))bis(methylene) bis(2,2-dimethylpropanoate)]
Stability in aqueous acetonitrile [5]: some minor isomerization | Concentrations with toxicity towards the T cells ([1]; Figure 2B): ≥ 10 µM | Fold difference from HMBPP, direct K562 toxicity ([2]; 72 hour treatment): >29x | Fold difference from salt, direct K562 toxicity ([2]; 72 hour treatment): >29x | Stimulation of Vγ9Vδ2 T cell proliferation [3]: strongly stimulated proliferation | Fold difference from salt ([3]; EC50 ratio): 630 x | Fold difference from salt ([3]; EC50 ratio, listed as POM3-CC-HMBPP (4)): 630x (versus 10) | EC50 ([3]; Homo sapiens, T-cell): 0.041 µM | Binding to BTN3A1 [4]: did not bind | Fold difference in cellular activity between compound 4 and 11 [6]: 26 fold | Fold difference from salt, lysis [6]: 150 x | Fold difference from salt, lysis ([6]; listed as POM3-CC-HMBPP (4)): 146x

C/C(=C\CP(=O)(O)OP(=O)(O)O)CO [C-HMBPP, (E)-4-hydroxy-3-methyl-but-2-enyl phosphonophosphate]
Kd [7]: 1.9 µM

CC(C)=CCCP(=O)(CP(=O)(OCOC(=O)C(C)(C)C)OCOC(=O)C(C)(C)C)OCOC(=O)C(C)(C)C (centres unmarked) [Compound 11, (((((4-Methylpent-3-en-1-yl)((pivaloyloxy)methoxy)phosphoryl)methyl)phosphoryl)bis(oxy))bis(methylene) bis(2,2-dimethylpropanoate)]
IC50 ([1]; Homo sapiens, T-cell): > 100 µM | Fold difference from HMBPP, direct K562 toxicity ([2]; 72 hour treatment): >10x | Fold difference from salt, direct K562 toxicity ([2]; 72 hour treatment): >10x | Agonist / biological activity [3]: No measurable agonist activity | Fold difference from HMBPP ([3]; EC50 ratio): <0.0000051x | EC50 ([3]; Homo sapiens, T-cell): > 100 µM | Fold difference from salt, lysis [6]: >14x

CC(C)=CCCP(=O)([O-])CP(=O)([O-])[O-].[Na+].[Na+].[Na+] [Compound 8, Sodium (((4-methylpent-3-en-1-yl)oxidophosphoryl)methyl)phosphonate]
IC50 ([1]; Homo sapiens, T-cell): > 100 µM | EC50 ([3]; Homo sapiens, T-cell): > 100 µM | Competition with HMBPP binding ([4]; 10x and 100x compound 8): capable of disrupting HMBPP binding in a dose-dependent manner | Binding to BTN3A1 [4]: too low to be measured directly; also recorded: intermediate affinity | EC50 ([6]; Homo sapiens, K562, 2 h, read-out: EC50, lysis of K562 cells by T cells): > 100 µM

C=C(C)CCOP(=O)(O)OP(=O)(O)O [IPP, isopentenyl diphosphate]
Direct toxicity [8]: not directly toxic

O=P(O)(O)C(O)(Cn1ccnc1)P(=O)(O)O [zoledronate]
Direct toxicity [8]: do exhibit direct toxicity

C/C(=C\CCP(=O)(O)O)CO [Compound 3]
EC50 [9]: 4 µM

O=P(O)(O)C(O)(Cc1cccnc1)P(=O)(O)O [risedronate]
Direct toxicity [8]: do exhibit direct toxicity

C/C(=C\COP(=O)(O)OP(=O)(O)O)CO [HMBPP, (E)-4-hydroxy-3-methyl-but-2-enyl diphosphate, reference compound]
Direct toxicity [2]: not directly toxic | Stimulation of Vγ9Vδ2 T cell proliferation [3]: strongly stimulated proliferation | TΔS of HMBPP binding ([4]; absence of compound 8): -4.54 kcal/mol | ΔH of HMBPP binding ([4]; absence of compound 8): -12.4 kcal/mol | TΔS of HMBPP binding [4, 10]: -1.1 kcal/mol | ΔH of HMBPP binding [4, 10]: -9.32 kcal/mol | TΔS of HMBPP binding [4, 11]: +28 kJ/mol | ΔH of HMBPP binding [4, 11]: -1.65 kcal/mol | Hill slope, K562 lysis ([6]; four parameter non-linear regression): 0.69

C/C(=C\CCP(=O)(OCOC(=O)C(C)(C)C)OCOC(=O)C(C)(C)C)CO [Compound 2]
Direct toxicity [8]: not directly toxic

From article PMC5754923 (Journal of medicinal chemistry, 2017)
